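These data come from cells grown in 96-well plates and exposed to compound for 48 hours at five concentrations. TGI: concentration producing complete growth inhibition.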
Tests used:
Assay in all cases: growth of human tumour cells (NCI), 48 h
CAKI-1 renal = system: CAKI-1 renal
COLO 205 colon = system: COLO 205 colon
HCC-2998 colon = system: HCC-2998 colon
HCT-116 colon = system: HCT-116 colon
HL-60(TB) leukemia = system: HL-60(TB) leukemia
HOP-92 NSCLC = system: HOP-92 NSCLC
IGROV1 ovarian = system: IGROV1 ovarian
NCI-H23 lung = system: NCI-H23 lung
NCI/ADR-RES ovarian = system: NCI/ADR-RES ovarian
RPMI-8226 leukemia = system: RPMI-8226 leukemia
SF-295 CNS = system: SF-295 CNS
TK-10 renal = system: TK-10 renal
KM12 colon = system: KM12 colon

Compound | TGI (CAKI-1 renal) [µM] | TGI (COLO 205 colon) [µM] | TGI (HCC-2998 colon) [µM] | TGI (HCT-116 colon) [µM] | TGI (HL-60(TB) leukemia) [µM] | TGI (HOP-92 NSCLC) [µM] | TGI (IGROV1 ovarian) [µM] | TGI (NCI-H23 lung) [µM] | TGI (NCI/ADR-RES ovarian) [µM] | TGI (RPMI-8226 leukemia) [µM] | TGI (SF-295 CNS) [µM] | TGI (TK-10 renal) [µM] | TGI (KM12 colon) [µM]
COc1cc2ccc1OCc1cccc(n1)COc1ccc(cc1OC)C=NCCNCCN=C2 | > 100 | > 100 | > 100 | > 100 | > 100 | > 100 | > 100 | > 100 | > 100 | > 100 | > 100 | > 100 | –
C/C(Cc1ccc2c(c1)OCO2)=N\NC(=O)C(C)Sc1nnc(SC(C)C(=O)N/N=C(\C)Cc2ccc3c(c2)OCO3)s1 (centres undefined) | > 100 | > 100 | > 100 | > 100 | > 100 | > 100 | > 100 | > 100 | > 100 | > 100 | > 100 | > 100 | > 100
O=C(C/C=C/c1ccccc1)c1ccccc1 | 31.7 | 56.6 | 33.4 | 33.1 | 66 | > 100 | > 100 | 31.6 | 33.7 | 83.5 | > 100 | 65.6 | 25.6
CCOC(=O)C(Cc1ccc(N(CCCl)CCCl)cc1)NC(=O)CCCN1C(=O)CN=C(c2ccccc2)c2cc(Cl)ccc21 (centres undefined) | > 55.7 | 37.8 | > 49.7 | > 100 | 7.51 | 8.85 | 16.9 | > 39 | > 87.1 | 20.7 | > 100 | > 100 | > 100
Cc1ccc(N=C2C(c3ccccc3)=C(SC3=C(c4ccccc4)C(=Nc4ccc(C)cc4)c4ccccc43)c3ccccc32)cc1 | 65.6 | > 100 | > 54.1 | > 100 | 17.8 | 33.2 | 45.5 | 41.6 | > 100 | > 100 | 27.4 | > 100 | > 100
COC1CC(O[C@H]2CC[C@@]3(C)[C@@H](CC[C@]4(O)[C@@H]3CC[C@]3(C)[C@@H](C(C)=O)[C@H](OC(=O)CC(C)C)[C@@H](OC(=O)c5ccccc5)[C@@]34O)C2)OC(C)C1OC1CC(OC)C(OC2OC(C)C(O)C(OC)C2O)C(C)O1 (some centres undefined) | > 25 | 12.4 | > 25 | > 25 | > 25 | 24.8 | > 25 | > 25 | > 25 | 14.5 | > 25 | > 25 | > 25
CC1CN=C(Nc2ccc(F)c(Cl)c2)S1 (centres undefined) | > 100 | > 100 | > 100 | > 100 | > 100 | > 100 | > 100 | > 100 | > 100 | > 100 | > 100 | > 100 | > 100
O=C1/C(=C/c2ccc(Cl)cc2)CSC/C1=C\c1ccc(Cl)cc1 | 11.8 | 7.26 | 4.09 | 3.69 | 3.69 | 43.2 | 3.65 | 11.8 | > 100 | 5 | 4.21 | 13 | 4.47
C#CC1NC(=O)C1N(CC)CC (centres undefined) | > 100 | > 100 | > 100 | > 100 | > 100 | > 100 | > 100 | > 100 | > 100 | > 100 | > 100 | > 100 | > 100
COc1cccc(-c2c(-c3ccccc3)[nH]c(C)c2C(=O)ONC(=O)c2ccccc2)c1 | 11.3 | 32.6 | 27.4 | 15 | 4.37 | 4.65 | 3.18 | 25.9 | 26 | 29.3 | 7.64 | 22.1 | 32.4
Cc1cccc2c1c(=O)c1c(O)cc(O)cc1n2C | > 100 | > 100 | > 100 | > 100 | > 100 | > 100 | > 100 | > 100 | > 100 | > 100 | > 100 | > 100 | > 100
CCCNC(=O)N1CC(CN2CCN(c3ccccc3)CC2)O/C1=N/C(=O)Nc1ccccc1 (centres undefined) | > 100 | 74.1 | > 100 | > 100 | > 100 | > 100 | > 100 | > 100 | > 100 | > 100 | > 100 | > 100 | > 100
COc1cccc(/C=C\c2ccc(O)cc2)c1 | > 84.1 | > 100 | > 62.8 | 74 | 2.92 | 64.8 | > 100 | 39.6 | 31.7 | > 100 | > 100 | > 100 | 33.3
C=CC1(C)OC2(CCN(C(=O)OCC)CC2)OC1C (centres undefined) | > 100 | > 100 | > 100 | – | > 100 | > 100 | > 100 | > 100 | > 100 | > 100 | > 100 | > 100 | > 100
CCCC(=O)NC(Nc1ccc(S(=O)(=O)Nc2ccc(OC)nn2)cc1)(C(F)(F)F)C(F)(F)F | > 100 | > 100 | > 100 | > 100 | > 100 | > 100 | > 100 | > 100 | > 100 | > 100 | > 100 | > 100 | > 100
CC1=NN(c2nc(N)nc(/C(C#N)=C\c3cccc([N+](=O)[O-])c3)n2)C(C)(C)C1 | > 94.1 | > 48 | 22.2 | > 42.1 | 4.61 | > 100 | 34.1 | > 72 | > 66.7 | 13.1 | 52 | 58.8 | > 48.1
Nc1nc(=S)n(-c2ccc(Cl)cc2)c2nc3ccccc3cc12 | > 100 | > 100 | > 100 | > 100 | > 100 | 83.7 | > 100 | > 100 | > 100 | > 100 | > 100 | 98.3 | > 100

Compound | TGI (CAKI-1 renal) [µM] | TGI (COLO 205 colon) [µM] | TGI (HCC-2998 colon) [µM] | TGI (HCT-116 colon) [µM] | TGI (HL-60(TB) leukemia) [µM] | TGI (HOP-92 NSCLC) [µM] | TGI (IGROV1 ovarian) [µM] | TGI (NCI-H23 lung) [µM] | TGI (NCI/ADR-RES ovarian) [µM] | TGI (RPMI-8226 leukemia) [µM] | TGI (SF-295 CNS) [µM] | TGI (TK-10 renal) [µM] | TGI (KM12 colon) [µM]
COC1/C=C/C(C)C(C(C)C(OC)C(C)CCC(=O)C(C)C(CC(=O)O)OC)OC(=O)/C=C/C=C(\C)CC(OC)CC2=CC(=O)O[C@H](C2)C(C)C(OC)CC(OC)/C=C/C(C)C(OC)C1 (some centres undefined) | 0.851 | > 4.35 | > 4.35 | – | 1.73 | 1.32 | 0.435 | > 4.35 | > 4.35 | > 4.35 | 2.19 | 1.66 | > 4.35
COc1ccc(/C=C/C(=O)c2ccc(OC(=O)/C=C/c3ccccc3)cc2)cc1 | > 69.2 | > 71.6 | 32.8 | 40.4 | 33.7 | > 100 | > 77.7 | 73.8 | > 100 | 24.7 | > 64 | > 100 | 26.4
Clc1c2ccccc2nc2c1[nH]c1ccccc12 | 65.2 | 11.8 | > 100 | > 100 | 41.4 | > 100 | > 100 | > 100 | 89.7 | 68.2 | > 100 | > 100 | 22.2
Cc1ccc(N2C(N)=C(C#N)C(C#N)(C#N)C2c2ccccc2)cc1 (centres undefined) | 30.9 | 24 | 25.8 | 14.4 | 6.15 | 21.8 | 20.2 | 38.1 | 36.1 | 32.1 | 60.3 | 28 | 33.6
O=C1CC2SC(COCc3ccccc3)(CCN2Cc2ccccc2)C1 (centres undefined) | > 100 | > 100 | > 100 | > 100 | 43 | > 100 | > 100 | > 100 | > 100 | 93.4 | > 100 | 76.3 | > 100
O=c1oc2ccc3ccccc3c2cc1-c1nc2ccc([N+](=O)[O-])cc2o1 | > 91.4 | > 100 | > 100 | > 100 | > 100 | > 91 | > 100 | > 86.9 | > 100 | > 100 | > 49.5 | > 78.6 | > 100
CC(O)[C@@]1(c2ccccc2)CC2(CCN(C)CC2)O[C@H]1C (some centres undefined) | > 100 | > 100 | > 100 | – | 95 | > 100 | > 100 | > 100 | > 100 | > 100 | > 100 | > 100 | > 100
NC(=O)C(=CNC(=S)Nc1cccc(C(F)(F)F)c1)C(N)=O | > 100 | > 100 | > 100 | > 100 | > 100 | > 100 | – | > 100 | > 100 | > 100 | > 100 | > 100 | > 100
CN(C)c1ccc(/C=C/c2cc(-c3ccccc3)[n+](C)n2-c2ccccc2)cc1 | 13 | 0.42 | 56.4 | 14.1 | 0.128 | 16.6 | 3.76 | 0.92 | > 100 | > 100 | 16.2 | 30.5 | 3.07
COC1=CC(=O)C2=C(C[C@@]3(C)C(=C2)C(CO)=CC[C@H]3O)C1=O | > 100 | 65.9 | 83.1 | 40.8 | 14.1 | 24.5 | 31.7 | 48.7 | 56.1 | 44.5 | 41.2 | > 100 | > 100
CC1(C)C2CCC(O)(C2)C1N (centres undefined) | > 100 | > 100 | > 100 | > 100 | > 31.6 | > 100 | > 100 | > 100 | > 100 | > 100 | > 100 | > 100 | > 100
O=c1c2c(F)c(F)c(F)c(F)c2sc2nccn12 | 33.3 | 32.7 | 31.9 | 27.7 | 4.14 | 39.4 | 32.3 | 34.9 | 93.3 | 42.4 | 36.3 | 32.8 | 32.2
O=C(N/N=C/C=C/c1ccc([N+](=O)[O-])o1)c1ccc(C(=O)N/N=C/C=C/c2ccc([N+](=O)[O-])o2)cc1 | > 90 | > 100 | > 28.5 | 25.7 | > 65.2 | > 100 | > 100 | > 100 | > 92.8 | > 32.9 | > 100 | > 69.7 | > 100
O=C1NC(=S)NC(=O)C1=C/C=C/c1ccc([N+](=O)[O-])cc1 | 30.8 | 33.6 | 35.7 | 37.2 | > 100 | 29.5 | 28.2 | 29.6 | 46.8 | > 100 | 33.1 | 22.5 | > 100
CCOC(=O)C(CCc1ncnc2c1ncn2Cc1ccccc1)(CCc1ncnc2c1ncn2Cc1ccccc1)C(=O)OCC | > 100 | > 100 | 54.8 | > 100 | > 100 | > 100 | > 100 | > 100 | > 100 | > 100 | > 100 | > 100 | > 100
O=C(NCCCN1CCN(CCCNC(=O)Nc2cccc3ccccc23)CC1)Nc1cccc2ccccc12 | 31.7 | 31.5 | 4.58 | 28 | 67.2 | 29.5 | 35.9 | 33.6 | > 100 | 40 | 27.4 | 28.4 | 43.3

From PubChem BioAssay (NCI)
